Experimental data: patent US4698352A, “4-oxo-1,4-dihydronicotinic acid derivatives, salts thereof, and antibacterial agents containing the same” (Toyama Chemical Co., Ltd., priority 1982, dated 1987)
≈ marks a conversion by molar mass, not a printed value. Where two headings read alike, the source gives them in different places.

What was measured:
Assay in all cases: Antibacterial activity (MIC), agar dilution
Type in all cases: cell-based
[1] = system: St. aureus F-137*; conditions: Staphylococcus aureus, 20 h, St. aureus F-137, penicillinase-producing; 10^6 cells per ml; read-out: MIC
Source text: (§1) The amount of bacteria inoculated was 10^4 cells per plate (10^6 cells per ml).
(§2) * Penicillinase-producing bacteria

[2] = system: Kl. pneumoniae Y-4*; conditions: Klebsiella pneumoniae, 20 h, Kl. pneumoniae Y-4, penicillinase-producing; 10^6 cells per ml; read-out: MIC
Source text: as §1, §2

[3] = system: Ps. aeruginosa GN3379*; conditions: Pseudomonas aeruginosa, Ps. aeruginosa GN3379, penicillinase-producing, 10^6 cells per ml
Source text: as §1, §2

[4] = system: Pro. vulgaris GN76**; conditions: Proteus vulgaris
Source text: as §1
(§3) ** Cephalospolinase-producing bacteria

[5] = system: Ps. aeruginosa GN918**; conditions: Pseudomonas aeruginosa, Ps. aeruginosa GN918, cephalospolinase-producing, 10^6 cells per ml
Source text: as §1, §3

[6] = system: E. coli GN5482**; conditions: Escherichia coli, 20 h; E. coli GN5482, cephalospolinase-producing; 10^6 cells per ml; read-out: MIC
Source text: as §1, §3

[7] = system: St. aureus FDA209P; conditions: Staphylococcus aureus, FDA209P, 20 h, St. aureus FDA209P; 10^6 cells per ml; 37° C., 20 hours; read-out: MIC
Source text: as §1

[8] = system: Ps. aeruginosa S-68; conditions: Pseudomonas aeruginosa
Source text: as §1

[9] = system: Aci. antitratus A-6; conditions: 20 h, Aci. antitratus A-6; 10^6 cells per ml; 37° C., 20 hours; read-out: MIC
Source text: as §1

[10] = system: Kl. pneumoniae Y-41; conditions: Klebsiella pneumoniae, Y41, 10^6 cells per ml, 37° C., 20 hours, read-out: MIC
Source text: as §1

[11] = system: Ent. cloacae IID977; conditions: Enterobacter cloacae, IID977, 20 h, Ent. cloacae IID977; 10^6 cells per ml; 37° C., 20 hours; read-out: MIC
Source text: as §1

[12] = system: Pro. mirabilis T-111; conditions: Proteus mirabilis, 37° C.
Source text: as §1

[13] = system: Pro. vulgaris GN3027; conditions: Proteus vulgaris, GN3027, 20 h, Pro. vulgaris GN3027; 10^6 cells per ml; 37° C., 20 hours; read-out: MIC
Source text: as §1

[14] = system: E. coli NIHJ JC-2; conditions: Escherichia coli, NIHJJC2, 20 h, E. coli NIHJ JC-2; 10^6 cells per ml; 37° C., 20 hours; read-out: MIC
Source text: as §1

[15] = system: E. coli TK-111; conditions: Escherichia coli, TK111, 20 h, E. coli TK-111; 10^6 cells per ml; 37° C., 20 hours; read-out: MIC
Source text: as §1

[16] = system: Pro. morganii T-216; conditions: Morganella morganii, T216, 10^6 cells per ml, 37° C., 20 hours, read-out: MIC
Source text: as §1

[17] = system: Kl. pneumoniae Y-50; conditions: Klebsiella pneumoniae, Y50, 20 h, 10^6 cells per ml, 37° C., read-out: MIC
Source text: as §1

[18] = system: Ps. aeruginosa IFO3445; conditions: Pseudomonas aeruginosa
Source text: as §1

[19] = system: E. coli TK-3*; conditions: Escherichia coli, 20 h, E. coli TK-3, penicillinase-producing; 10^6 cells per ml; read-out: MIC
Source text: as §1, §2

[20] = 20 h, Pro. vulgaris GN76, cephalospolinase-producing, 10^6 cells per ml, read-out: MIC
[21] = T111, 10^6 cells per ml, 20 hours, read-out: MIC
[22] = Ps. aeruginosa IFO3445, 10^6 cells per ml, 37° C., 20 hours, read-out: MIC
[23] = S68, Ps. aeruginosa S-68, 10^6 cells per ml, 37° C., 20 hours, read-out: MIC

Structure (SMILES) | MIC [1] [µg/mL] | MIC [2] [µg/mL] | MIC ([3]; GN3379, 20 h) [µg/mL] | MIC [4, 20] [µg/mL] | MIC [6] [µg/mL] | MIC [7] [µg/mL] | MIC ([8]; S68, 20 h) [µg/mL] | MIC [9] [µg/mL] | MIC [10] [µg/mL] | MIC [11] [µg/mL] | MIC [12, 21] [µg/mL] | MIC [13] [µg/mL] | MIC [14] [µg/mL] | MIC [15] [µg/mL] | MIC [16] [µg/mL] | MIC [17] [µg/mL] | MIC [18, 22] [µg/mL] | MIC [19] [µg/mL] | MIC ([3]; 20 h, read-out: MIC) [µg/mL] | MIC ([12]; T111, 20 h, 10^6 cells per ml) [µg/mL] | other results
O=C(O)c1cn(-c2ccc(O)cc2F)c(-c2ccc(N3CCCC3)cc2)cc1=O | ≤ 0.05 | 3.13 (≈ 7.94 µM) | 3.13 (≈ 7.94 µM) | 0.78 (≈ 1.98 µM) | ≤ 0.05 | ≤ 0.05 | 3.13 (≈ 7.94 µM) | ≤ 0.05 | 1.56 (≈ 3.96 µM) | 0.78 (≈ 1.98 µM) | 0.78 (≈ 1.98 µM) | 0.2 (≈ 0.507 µM) | 0.2 (≈ 0.507 µM) | ≤ 0.05 | 0.78 (≈ 1.98 µM) | 0.39 (≈ 0.989 µM) | 6.25 (≈ 15.8 µM) |  |  |  | MIC ([5]; 20 h, read-out: MIC): 0.78 µg/mL (≈ 1.98 µM)
COCOC(=O)c1cn(-c2ccc(O)cc2)c(-c2ccc(N(C)C)cc2)cc1=O | 0.39 (≈ 0.989 µM) | 3.13 (≈ 7.94 µM) |  |  | ≤ 0.05 | 0.39 (≈ 0.989 µM) | 3.13 (≈ 7.94 µM) |  | 3.13 (≈ 7.94 µM) | 1.56 (≈ 3.96 µM) |  | 0.39 (≈ 0.989 µM) | 0.39 (≈ 0.989 µM) | 0.2 (≈ 0.507 µM) | 1.56 (≈ 3.96 µM) | 0.78 (≈ 1.98 µM) | 6.25 (≈ 15.8 µM) | 1.56 (≈ 3.96 µM) | 6.25 (≈ 15.8 µM) | 3.13 (≈ 7.94 µM) | MIC ([4]; GN76, 20 h): 3.13 µg/mL (≈ 7.94 µM); MIC ([5]; GN918, 20 h): 3.13 µg/mL (≈ 7.94 µM)
CN(C)c1ccc(-c2cc(=O)c(C(=O)O)cn2-c2ccc(O)cc2F)cc1 | ≤ 0.05 | 0.78 (≈ 2.12 µM) | 3.13 (≈ 8.5 µM) | 0.2 (≈ 0.543 µM) | ≤ 0.05 | ≤ 0.05 |  | 0.1 (≈ 0.271 µM) | 3.13 (≈ 8.5 µM) | 0.2 (≈ 0.543 µM) | 0.78 (≈ 2.12 µM) | ≤ 0.05 | 0.1 (≈ 0.271 µM) | ≤ 0.05 | 0.78 (≈ 2.12 µM) | 0.2 (≈ 0.543 µM) | 1.56 (≈ 4.23 µM) | 0.2 (≈ 0.543 µM) |  |  | MIC [8, 23]: 0.78 µg/mL (≈ 2.12 µM)
O=C(O)c1cn(-c2ccc(O)cc2)c(-c2ccc(-c3ccc(O)cc3)s2)cc1=O | 0.2 (≈ 0.493 µM) | 6.25 (≈ 15.4 µM) | 3.13 (≈ 7.72 µM) | 0.78 (≈ 1.92 µM) | ≤ 0.05 | 0.1 (≈ 0.247 µM) | 6.25 (≈ 15.4 µM) | 0.78 (≈ 1.92 µM) | 3.13 (≈ 7.72 µM) | 1.56 (≈ 3.85 µM) |  | 0.39 (≈ 0.962 µM) | 0.39 (≈ 0.962 µM) | ≤ 0.05 | 1.56 (≈ 3.85 µM) | 0.78 (≈ 1.92 µM) |  | 0.78 (≈ 1.92 µM) |  | 6.25 (≈ 15.4 µM) | MIC ([18]; IFO3445, 20 h): 3.13 µg/mL (≈ 7.72 µM)
O=C(O)c1cn(-c2ccc(O)cc2)c(-c2ccc3occc3c2)cc1=O | 0.39 (≈ 1.12 µM) | 3.13 (≈ 9.01 µM) |  | 0.78 (≈ 2.25 µM) | ≤ 0.05 | 0.2 (≈ 0.576 µM) |  | 0.78 (≈ 2.25 µM) | 1.56 (≈ 4.49 µM) | 0.78 (≈ 2.25 µM) |  | ≤ 0.05 | 0.39 (≈ 1.12 µM) | 0.2 (≈ 0.576 µM) | 0.78 (≈ 2.25 µM) | 0.39 (≈ 1.12 µM) | 12.5 (≈ 36 µM) |  | 6.25 (≈ 18 µM) | 3.13 (≈ 9.01 µM) | MIC ([5]; GN918, 20 h): 1.56 µg/mL (≈ 4.49 µM); MIC [8, 23]: 6.25 µg/mL (≈ 18 µM)
COc1ccc(-c2ccc(-c3cc(=O)c(C(=O)O)cn3-c3ccc(O)cc3)s2)cc1 | 0.1 (≈ 0.238 µM) | 3.13 (≈ 7.46 µM) |  | 0.39 (≈ 0.93 µM) | ≤ 0.05 | 0.1 (≈ 0.238 µM) | 1.56 (≈ 3.72 µM) | 0.39 (≈ 0.93 µM) | 1.56 (≈ 3.72 µM) | 0.78 (≈ 1.86 µM) |  | 0.2 (≈ 0.477 µM) | 0.39 (≈ 0.93 µM) | 0.1 (≈ 0.238 µM) | 0.78 (≈ 1.86 µM) | 0.78 (≈ 1.86 µM) |  | 0.78 (≈ 1.86 µM) | 6.25 (≈ 14.9 µM) | 1.56 (≈ 3.72 µM) | MIC ([18]; IFO3445, 20 h): 3.13 µg/mL (≈ 7.46 µM)
